Experimental data published in article PMC3745031 (Bioorganic & medicinal chemistry letters, 2012).

Legend:
[1] = tested on: HDAC activity of HeLa cell lysates; conditions: ref 16b, cited from earlier work
HDAC1, HDAC3, and HDAC6 = assay: Isoform preference across HDAC1, HDAC3 and HDAC6; format: biochemical
[2] = tested on: HDAC activity of HeLa cell lysates

For `O=C(CC(CCCCC(=O)Nc1ccccc1)c1ccccc1)NO` (stereo not shown) [C3-phenyl SAHA variant], the IC50 ([1]; read-out: IC50, HDAC inhibition) is given as 73 µM and the “fold reduced activity versus SAHA” value [1] is given as 811 fold.
In the case of `CC(C)(C)C(CCCCC(=O)NO)CC(=O)Nc1ccccc1` (stereo not shown) [2c], the “isoform preference in single-concentration screen” value (“isoform preference” below) (HDAC1, HDAC3, and HDAC6; 2 µM) is reported as “preference for HDAC1 and HDAC6 over HDAC3” and the “fold reduced potency compared to SAHA” value [2] is reported as 20 fold.
For `O=C(CCCCC(CC(=O)Nc1ccccc1)c1ccccc1)NO` (stereo not shown) [2b], the “isoform preference” value (HDAC1, HDAC3, and HDAC6; 500 nM) was “similarly inhibited HDAC1, HDAC3, and HDAC6”.
With `CCCCC(CC)CC(CCCCC(=O)NO)CC(=O)Nc1ccccc1` (stereo not shown) [2d] the “isoform preference” value (HDAC1, HDAC3, and HDAC6; 500 nM) was “preference for HDAC3 over HDAC1 and HDAC6”.
In the case of `CC(CCCCC(=O)NO)CC(=O)Nc1ccccc1` (stereo not shown) [2a], the “isoform preference” value (HDAC1, HDAC3, and HDAC6; 500 nM) is reported as “modest dual-preference for HDAC1 and HDAC3 over HDAC6”.
